Test results reported in the NIST ThermoML archive (doi:10.1021/je025631i).
Numbers after ± are expanded uncertainties.

Assays:
[1] = Liquid; for mass density: 293.15 K, 101.33 kPa, Vibrating tube method
[2] = refractive index (Na D-line) (dimensionless); details: 293.15 K; 101.33 kPa; Liquid; Abbe refractometer

mass density [1] [kg/m3]	vapor or sublimation pressure ([1]; 348.15 K) [kPa]	vapor or sublimation pressure ([1]; 363.15 K) [kPa]	vapor or sublimation pressure ([1]; 382.79 K) [kPa]	vapor or sublimation pressure ([1]; 383.15 K) [kPa]	vapor or sublimation pressure ([1]; 405.54 K) [kPa]	vapor or sublimation pressure ([1]; 429.34 K) [kPa]	refractive index [2]	vapor or sublimation pressure ([1]; 356.74 K) [kPa]	vapor or sublimation pressure ([1]; 376.95 K) [kPa]	vapor or sublimation pressure ([1]; 398.79 K) [kPa]	Structure (SMILES)
858.06 ± 0.16	7.35 ± 0.33	13.32 ± 0.35	26.66 ± 0.34	26.98 ± 0.4	53.33 ± 0.41	101.32 ± 0.5	1.4657 ± 0.0003				CC1=CCC2CC1C2(C)C (stereo unspecified) [2-pinene]
702.44 ± 0.18	19.31 ± 0.37	33.52 ± 0.42		64.25 ± 0.52			1.3973 ± 0.0003	26.66 ± 0.3	53.33 ± 0.36	101.3 ± 0.5	CCCCCCCC [octane]
